The source of these data is PMC9495262, “In Vitro Antiparasitic Activities of Monovalent Ionophore Compounds for Human and Canine Leishmaniases” (Animals : an Open Access Journal from MDPI, 2022).

Where two headings read alike, the source gives them in different places. Some results are limits rather than exact numbers.

Usually IC50 stands for the midpoint of a concentration-inhibition curve. A word on the CC50: it is the concentration that lowers cell viability or growth by half.

Data set [1] relates to L. infantum intracellular amastigotes. Description: Intracellular amastigote susceptibility assay in human dTHP-1 (Giemsa counting). Type of data set: cell-based, Leishmania infantum. To be noted: for IC50: Leishmania infantum, read-out: Amastigotes IC50; for SI (Selectivity index = IC50 dTHP-1/IC50 amastigotes): ratio of cytotoxicity on dTHP-1 to activity on L. infantum amastigotes. As to the method:
For Leishmania spp. infections, 100 μL of THP-1 cells (5 × 10^5 cells/mL) or canine macrophages (2 × 10^6 cells/mL) were plated in 16-chamber Lab-Tek culture slides (Nunc) and further treated with 0.1 µM of PMA for 72 h to achieve differentiation into macrophages. Cells were then washed with PBS and infected with stationary phase L. infantum promastigotes at a macrophage:promastigote ratio of 1:10. After 24 h, cell monolayers were extensively washed with PBS to remove non-internalized promastigotes and observed under an inverted light microscope to evaluate both the cellular size and the cellular morphology. Infected cells were then incubated in the presence of test compounds for 72 h. Infected and/or treated cells were then fixed with 100% methanol and stained with Giemsa at room temperature. The percentage of infected macrophages in treated and non-treated wells was determined by counting 200–300 macrophages/well under a light microscope. About 10 random microscopic fields/well were observed. The number of infected macrophages in the untreated control samples was considered 100% for calculating the percentage of infection in drug treated samples. IC50 values were then calculated. Data are the mean ± standard deviation of individual experiments performed in triplicate.
Next, human macrophages (dTHP-1) were infected with stationary-phase promastigotes of L. infantum at a cell:promastigote ratio of 1:10 for 24 h, and allowed to differentiate into intracellular parasite forms. After the removal of free promastigotes, the infected macrophages were incubated for 72 h in the presence of the ionophores at different concentrations. A significant reduction in the number of infected macrophages was observed after treatment with all the compounds tested. The inhibition was dose-dependent with IC50s between 1 and 2 µM (Table 3).

The subject of data set [2] is L. infantum promastigotes. Put plainly: Leishmania promastigote viability assay (MTT), L. infantum. It counts as cell-based. As to conditions: mean ± SD of three experiments in duplicate. The procedure: (§1) Promastigote stages of L. infantum strain (MHOM/TN/80/IPT1) (WHO international reference strain, kindly provided by Dr. M. Gramiccia and Dr. T. Di Muccio, ISS, Roma, Italy), and clinical isolates of L. tropica (MHOM/SY/2012/ISS3130) and L. braziliensis (MHOM/PE/2006/ISS2848) (kindly provided by Dr. R. Grande, Sacco Hospital, Milan, Italy), were cultured in Schneider’s Drosophila medium (Lonza) supplemented with 2 mM L-glutamine and 10% heat-inactivated FBS (HyClone) at 24 °C.
(§2) To estimate the 50% inhibitory concentration (IC50) of compounds on both cells and Leishmania promastigotes, the MTT (3-[4,5-dimethylthiazol-2-yl]-2,5-diphenyltetrazolium bromide) assay was used with minor modifications. Briefly, monensin and nigericin were dissolved in ethanol (10 mg/mL), and salinomycin and amphotericin B in DMSO (10 mg/mL). All compounds were then diluted with medium to achieve the required concentrations (final DMSO or ethanol concentration <1%, non-toxic to the parasite or cells). The complete medium used for the antileishmanial activity assay was RPMI 1640 (EuroClone) supplemented with 10% heat-inactivated FBS (EuroClone), 20 mM HEPES, and 2 mM L -glutamine. Drugs were added to 96-well round-bottom microplates and seven serial dilutions were performed. Amphotericin B was used as the reference anti-Leishmania drug. Subsequently, 100 μL of the parasite suspension (5 × 10^6 parasites/mL) was dispensed into the plates. After 72h of incubation at 24 °C, 20 μL of MTT solution (5 mg/mL in PBS) was added into each well. After 3 h in the dark, the plates were centrifuged, the supernatants discarded, and the formazan crystals in the pellet dissolved in 100 μL of lysing buffer (20% w/v of a solution of SDS -Merck-, and 40% of N,N-dimethylformamide -Merck- in H2O).
(§3) For cell cytotoxicity experiments, 100 μL (5 × 10 ^5 cells/mL) of THP-1 cells were plated in 96-well flat-bottom microplates and treated with 0.1 µM phorbol myristate acetate (PMA, Merck, Kenilworth, NJ, USA) for 72 h to achieve differentiation into macrophages. Cells were then treated with different drug concentrations (60–0.4 µM). After 72 h, 20 μL of the MTT solution was added into each well. After 3 h in the dark, the supernatants were discarded and the formazan crystals dissolved in 100 μL of the same lysing buffer described above. The absorbance was then measured spectrophotometrically at 550 nm (reference wavelength 650 nm). The results are expressed as IC50, which is the dose of compound necessary to inhibit parasite and cell growth by 50%. The IC50 values were extrapolated from nonlinear regression analysis of the concentration–response curve using the software Gen5 1.10 provided with the Synergy 4 (BioTek, Winooski, VT, USA) reader. Data are the mean ± standard deviation of individual experiments performed in duplicate.

Data set [3] has as its system L. braziliensis promastigotes. Description: Leishmania promastigote viability assay (MTT), L. braziliensis. Type of data set: cell-based. To be noted: mean ± SD of three experiments in duplicate. The procedure:
as §1, §2, §3

Data set [4] deals with L. tropica promastigotes. Put plainly: Leishmania promastigote viability assay (MTT), L. tropica. It counts as cell-based. As to conditions: mean ± SD of three experiments in duplicate. As to the method:
as §1, §2, §3

Data set [5] can be described thus: Cytotoxicity (MTT) on PMA-differentiated THP-1 macrophages. It counts as cell-based. To be noted: human. As to the method:
THP-1 cells (human acute monocytic leukemia cell line) were maintained in Roswell Park Memorial Institute (RPMI) 1640 medium supplemented with 10% fetal bovine serum (FBS, EuroClone), 50 µM 2-mercaptoethanol, 20 mM HEPES, and 2 mM L-glutamine, at 37 °C in 5% CO2.
as §3

Data set [6] can be described thus: in vitro. Type of data set: cell-based. To be noted: human. As to the method: as §3
Non-infected human macrophages (PMA-differentiated THP-1, dTHP-1) and human dermal fibroblasts (HDF) were incubated in the presence of different concentrations of ionophores to determine the nontoxic concentration for mammalian cells.

In data set [7] the test system is all Leishmania spp. promastigotes. Put plainly: Promastigote viability assay, all Leishmania species tested (summary statements). Type of data set: cell-based. To be noted: read-out: IC50 against all Leishmania spp. promastigotes tested. As to the method: as §1
as §2, with “After 3 h in the dark, the plates were centrifuged, the supernatants discarded, and the formazan crystals in the pellet dissolved in 100 μL of lysing buffer (20% w/v of a solution of SDS -Merck-, and 40% of N,N-dimethylformamide -Merck- in H2O).” left out
For cell cytotoxicity experiments, 100 μL (5 × 10 ^5 cells/mL) of THP-1 cells were plated in 96-well flat-bottom microplates and treated with 0.1 µM phorbol myristate acetate (PMA, Merck, Kenilworth, NJ, USA) for 72 h to achieve differentiation into macrophages. […] The absorbance was then measured spectrophotometrically at 550 nm (reference wavelength 650 nm). […] The IC50 values were extrapolated from nonlinear regression analysis of the concentration–response curve using the software Gen5 1.10 provided with the Synergy 4 (BioTek, Winooski, VT, USA) reader. […]

In data set [8] the test system is L. donovani intracellular amastigotes. On the set-up: method as in PMID 21358812. As to conditions: read-out: IC50 against intracellular amastigotes, ex vivo splenic explant model of L. donovani infection; cited from earlier work.
In data set [9] the test system is promastigotes of L. donovani. Set-up: method as in PMID 12864731. As to conditions: previous work; read-out: IC50 against promastigotes of L. donovani; cited from earlier work.
Where [10] appears, read: L. infantum-infected dTHP-1 treated for 72 h, Giemsa, percentage of infected cells.
Setting [11] is: Leishmania infantum, MTT assay after 72 h of treatment, read-out: IC50 against L. infantum promastigotes.
[12] abbreviates: Leishmania braziliensis, MTT assay after 72 h of treatment, read-out: IC50 against L. braziliensis promastigotes.
Where [13] appears, read: Leishmania tropica, MTT assay after 72 h of treatment, read-out: IC50 against L. tropica promastigotes.
Setting [14] is: non-infected PMA-differentiated THP-1 macrophages (dTHP-1), non-infected PMA-differentiated THP-1, MTT assay after 72 h of treatment, read-out: CC50 dTHP-1.
The mark [15] stands for this setting: L. infantum, L. tropica and L. braziliensis promastigotes, summary statement.

For `C[C@@H]1[C@H](O)[C@@H](C)/C=C/C=C/C=C/C=C/C=C/C=C/C=C/[C@H](O[C@@H]2O[C@H](C)[C@@H](O)[C@H](N)[C@@H]2O)C[C@@H]2O[C@](O)(C[C@@H](O)C[C@@H](O)[C@H](O)CC[C@@H](O)C[C@@H](O)CC(=O)O[C@H]1C)C[C@H](O)[C@H]2C(=O)O` [Amphotericin B], the IC50 in data set [1] (setting [10]) worked out at 180 ± 30 nM; in data set [2] (setting [11]), 120 ± 20 nM; in data set [3] (setting [12]) it was 80 ± 20 nM; in [4] (setting [13]) it was 100 ± 20 nM. Besides, in data set [1], the “SI (Selectivity index = IC50 dTHP-1/IC50 amastigotes)” value is more than 111.1. The CC50 at 72 h in [5] (setting [14]) is more than 20000 nM.

`CC[C@@]1([C@@H]2O[C@@H]([C@H]3O[C@@](O)(CO)[C@H](C)C[C@@H]3C)C[C@@H]2C)CC[C@H]([C@]2(C)CC[C@]3(C[C@H](O)[C@@H](C)[C@@H]([C@@H](C)[C@@H](OC)[C@H](C)C(=O)O)O3)O2)O1` [Monensin, monensin]: the IC50 in data set [1] (setting [10]) is 1670 ± 430 nM; in data set [2] (setting [11]), 630 ± 110 nM; in data set [3] (setting [12]) it was 270 ± 130 nM; in data set [7] (setting [15]) it was less than 1000 nM; in data set [4] (setting [13]), 350 ± 170 nM; in [8], 850 nM. In data set [1], the “SI (Selectivity index = IC50 dTHP-1/IC50 amastigotes)” value is on record as more than 35.9. For the same molecule, the half-maximal cytotoxic concentration (CC50) at 72 h in data set [6] and in [5] was more than 60000 nM throughout.

On to `CO[C@@H]1C[C@@H](C[C@H]2CC[C@H](C)[C@H]([C@@H](C)C(=O)O)O2)O[C@]2(O[C@](C)([C@H]3CC[C@@](C)([C@@H]4O[C@@H]([C@H]5O[C@@](O)(CO)[C@H](C)C[C@@H]5C)C[C@@H]4C)O3)C[C@H]2C)[C@@H]1C` [Nigericin, nigericin], for which the IC50 was 1790 ± 830 nM in [1] (setting [10]); 370 ± 40 nM in [2] (setting [11]); 780 ± 80 nM in data set [3] (setting [12]); less than 1000 nM in [7] (setting [15]); 230 ± 50 nM in data set [4] (setting [13]). Besides, the “SI (Selectivity index = IC50 dTHP-1/IC50 amastigotes)” value in [1] is more than 33.5. Moreover, the CC50 at 72 h in [6] and in data set [5] was more than 60000 nM in each case.

Take `CC[C@@H](C(=O)[C@@H](C)[C@@H](O)[C@H](C)[C@@H]1O[C@@H]([C@@H](CC)C(=O)O)CC[C@@H]1C)[C@H]1O[C@]2(C=C[C@@H](O)[C@]3(CC[C@@](C)([C@H]4CC[C@](O)(CC)[C@H](C)O4)O3)O2)[C@H](C)C[C@@H]1C` [Salinomycin, salinomycin]: the IC50 in [1] (72 h) is 1930 ± 100 nM; in data set [2] (Leishmania infantum, 72 h, read-out: IC50 against L. infantum promastigotes, MTT assay after 72 h of treatment), approximately 8000 nM; in data set [2] (read-out: IC50 against L. infantum promastigotes, MTT assay after 72 h of treatment), 7980 ± 640 nM; in data set [3] (Leishmania braziliensis, 72 h, read-out: IC50 against L. braziliensis promastigotes, MTT assay after 72 h of treatment) it was approximately 5000 nM; in data set [3] (read-out: IC50 against L. braziliensis promastigotes, MTT assay after 72 h of treatment), 5080 ± 1740 nM; in [7], more than 4000 nM. Moreover, the IC50 in data set [9] was approximately 1700 nM; in data set [4] (Leishmania tropica, 72 h, read-out: IC50 against L. tropica promastigotes, MTT assay after 72 h of treatment), approximately 5000 nM; in [4] (read-out: IC50 against L. tropica promastigotes, MTT assay after 72 h of treatment) it was 4530 ± 600 nM. In addition, in [1], the “SI (Selectivity index = IC50 dTHP-1/IC50 amastigotes)” value was 16.6. The CC50 at 72 h is more than 60000 nM in data set [6] and 32100 ± 5300 nM in data set [5] (setting [14]).
